Data taken from patent publication US20230227445A1, “BENZAMIDE COMPOUND AND USE THEREOF” (HUMANWELL HEALTHCARE (GROUP) CO., LTD., priority 2020, published 2023).

What was measured:
hP2X3 receptor = target: T1, hP2X3 receptor (Homo sapiens, UniProt P56373); assay: Antagonistic activity against hP2X3 receptor by FLIPR calcium flow assay; format: cell-based
T1 construct: expressed in transfected cells
T1 sequence (P56373 1-397): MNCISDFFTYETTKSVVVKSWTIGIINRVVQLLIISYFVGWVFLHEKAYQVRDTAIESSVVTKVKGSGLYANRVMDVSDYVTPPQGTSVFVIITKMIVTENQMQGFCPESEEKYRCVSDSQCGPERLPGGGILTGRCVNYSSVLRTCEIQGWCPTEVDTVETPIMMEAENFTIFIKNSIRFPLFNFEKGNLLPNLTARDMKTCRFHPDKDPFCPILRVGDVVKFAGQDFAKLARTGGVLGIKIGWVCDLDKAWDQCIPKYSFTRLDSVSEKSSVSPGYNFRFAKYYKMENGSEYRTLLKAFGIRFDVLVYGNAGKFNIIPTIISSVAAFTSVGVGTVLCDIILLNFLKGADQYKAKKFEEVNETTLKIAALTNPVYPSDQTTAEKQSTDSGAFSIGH
Method: The antagonistic activity of hP2X3 antagonists against hP2X3 receptor was evaluated by means of FLIPR Calcium 4 Assay Kit (Molecular Devices, R8141) and FLIPR TETRA instrument (Molecular Devices, 0296) by detecting calcium flow signals. 24h before the experiment, human cells, which had been stably transfected with hP2X3 receptors, were plated on a 384-well plate at 2×10^5 cells/mL, with 50 μL of cell suspension per well, and the plate was cultured in an incubator (37° C., 5% CO2) for 16 h to 24 h. The test compound solution (20 to 50 mM DMSO stock solution) with a concentration of 180 times the required concentration was prepared using DMSO. The stock solution was added to the 384-well plate at 500 nL per well, supplemented with 30 μL of FLIPR Assay buffer (1×HBSS+2 mM CaCl2 20 mM HEPES containing 1.26 mM Ca^2+). The 384-well plate was shaken for 20 to 40 min to mix evenly. An agonist (α, β-meATP) with a concentration of 3 times the required concentration (required final concentration was 400 nM) was prepared with FLIPR Assay buffer, and was added to another 384-well plate at 45 μL per well. The culture plate, on which the cells were plated one day ago, was taken, the cell supernatant was sucked and discarded, each well was added with 30 μL of Dye (FLIPR® Calcium 4 Assay Kit, diluted with FLIPR buffer), and then the plate was incubated for 1h. 15 μL of compound was added to each well of cells (using FLIPR sample injector). After 15 minutes, 22.5 μL of the agonist was added to each well, and the fluorescence signal (exciting light wavelength ranging from 470 nm to 495 nm, and emission wavelength ranging from 515 nm to 575 nm) was detect. […] An inhibition effect curve of the compound was fitted on the software GraphpadPrism6, and the IC50 value was calculated.

[1] = Pharmacokinetic assay in rat; format: in vivo, SD rats
Method: For a rat pharmacokinetic assay, male SD rats (180 g to 240 g) were selected and fasted overnight. Three rats were intragastrically administered with 10 mg/kg of the corresponding compound. The blood of the rats was collected before the administration and at 15 min, 30 min, 1 h, 2 h, 4 h, 8 h, and 24 h after the administration. The blood samples were centrifuged at 4° C. for 6 minutes at 8,000 r/min, and plasma was collected and stored at −20° C. Plasma at each time point was taken, and added with 3 to 5 times the amount of an internal standard-containing acetonitrile solution to mix, and the mixture was vortex mixed for 1 minute, and centrifuged at 4° C. for 10 minutes at 13,000 r/min. The supernatant was taken and mixed with 3 times the amount of water, and an appropriate amount of the mixed solution was taken for LC-MS/MS analysis. The primary pharmacokinetic parameters were analyzed by WinNonlin 7.0 software non-atrioventricular model.

[2] = Pharmacokinetic assay in mouse; format: in vivo, ICR mice
Method: For a mouse pharmacokinetic assay, male ICR mice (20 g to 25 g) were selected and fasted overnight. Three mice were intragastrically administered with 10 mg/kg of the corresponding compound. The blood of the mice was collected before the administration and at 15 min, 30 min, 1 h, 2 h, 4 h, 8 h, and 24 h after the administration. The blood samples were centrifuged at 4° C. for 6 minutes at 6,800 g, plasma was collected and stored at −80° C.
The supernatant was mixed with 3 times the amount of water, and an appropriate amount of the mixed solution was taken for LC-MS/MS analysis. The primary pharmacokinetic parameters were analyzed by WinNonlin 7.0 software non-atrioventricular model.

rat taste = assay: Taste test in rat (water vs 0.3 mM aqueous quinine solution intake); format: in vivo, SD rats
Method: SD rats were administered with the corresponding compound after 3 days of overnight water prohibition training. Each rat was supplied with 1 bottle of water and 1 bottle of 0.3 mM aqueous quinine solution half an hour after the administration. After 15 min of water supply, the bottles were removed. The intake amount of water and the intake amount of the 0.3 mM aqueous quinine solution were measured, respectively. The taste influence of the compound on SD rats was evaluated based on the difference between the intake amount of water and the intake amount of the aqueous quinine solution.

[3] = tested on: histamine/citric acid-stimulated cough in guinea pig; assay: Efficacy test for histamine/citric acid-stimulated cough in guinea pig; format: in vivo; details: guinea pigs, nasal drops, 0.17 mg/kg to 1.5 mg/kg, histamine/citric acid stimulation
Method: Guinea pigs were adaptively fed for 3 days to 7 days before being grouped. When the body weight of the guinea pigs reached 300 g to 400 g, they were numbered and randomly grouped.
Compounds or an excipient were administered to guinea pigs by nasal drops 0.25 hour to 24 hours before the start of the cough assessment. The administration dose of the test sample ranged from 0.17 mg/kg to 1.5 mg/kg. For the cough assessment, the guinea pigs were placed in a whole-body volume scan box for adaptation, and then, they were provided with histamine nebulization and then citric acid nebulization. […]
(§1) The experimental data was statistically analyzed by one-way ANOVA to analyze and compare data of the various groups. The statistical analysis result p<0.05 was regarded as a significant difference. The t-test was employed for difference comparison between any two.

[4] = tested on: ATP/citric acid-stimulated cough in guinea pig; assay: Efficacy test for ATP/citric acid-stimulated cough in guinea pig; format: in vivo; details: guinea pigs, nasal drops, 0.17 mg/kg to 1.5 mg/kg, ATP/citric acid stimulation
Method: Guinea pigs were adaptively fed for 3 days to 7 days before being grouped. When the body weight of the guinea pigs reached 300 g to 400 g, they were numbered and randomly grouped. Compounds or an excipient were administered to guinea pigs by nasal drops 0.25 hour to 24 hours before the start of the cough assessment. The administration dose of the test sample ranged from 0.17 mg/kg to 1.5 mg/kg. For the cough assessment, the guinea pigs were placed in a whole-body volume scan box for adaptation, and then provided with ATP nebulization, and a few minutes later, they were provided with citric acid nebulization. The cough times within 15 minutes and the cough latency were recorded from the beginning of citric acid nebulization.
as §1

[5] = rat, plasma, po, male SD rats, intragastric administration, 10 mg/kg
[6] = mouse, plasma, po, male ICR mice, intragastric administration, 10 mg/kg

- IC50 (hP2X3 receptor; human cells stably transfected with hP2X3, agonist α,β-meATP 400 nM): 83 nM
- antagonistic activity against hP2X3 receptor compared with Reference compound 1 (in words) (hP2X3 receptor; vs Reference compound 1): better antagonistic activity
- pharmacokinetic properties in rat compared with reference compound 1 (in words) ([1]; rat model, vs reference compound 1): improved to certain extent
- AUC(0-t) [1, 5]: 5940 ng·h/mL
- Cmax [1, 5]: 569 ng/mL
- Tmax [1, 5]: 4 h
- half-life ([1]; rat, plasma, po, male SD rats, intragastric administration, 10 mg/kg, read-out: T½ (converted)): 3.61 h
- AUC(0-t) [2, 6]: 12100 ng·h/mL
- Cmax [2, 6]: 1550 ng/mL
- Tmax [2, 6]: 2 h
- half-life ([2]; mouse, plasma, po, male ICR mice, intragastric administration, 10 mg/kg, read-out: T½ (converted)): 2.3 h
- Water/aqueous quinine solution (ratio of water intake to aqueous quinine solution intake) (rat taste; SD rats, 30 mg/kg i.p, 0.3 mM quinine, 15 min supply half an hour after administration): 18.2
SMILES: Cc1cnc(-c2cc(O[C@@H]3CCOC3)cc(C(=O)N[C@H](C)c3cnc(C(F)(F)F)nc3)c2F)s1 [Compound I-1, 2-fluoro-3-(5-methylthiazol-2-yl)-5-(((R)-tetrahydrofuran-3-yl)oxy)-N—((R)-1-(2-(trifluoromethyl)pyrimidin-5-yl)ethyl)benzamide]
- pharmacokinetic properties in mouse compared with Reference compound 1 and Reference compound 2 (in words) ([2]; mouse assay, vs Reference compounds 1 and 2): significantly improved pharmacokinetic properties
- interference on rat taste compared with Reference compound 1 (in words) (rat taste; vs positive reference compound): significantly less interference on rat taste
- Average cough times within 15 min [3]: 10.8
- Cough inhibition rate vs. solvent [3]: 59.4%
- Average cough times within 15 min [4]: 6.5
- Cough inhibition rate vs. solvent [4]: 67.2%
